Species: Rattus norvegicus
Assay: DrugMatrix - Regimen: Daily Repeat
Type: toxicity, organism-based, Sprague-Dawley
Parameters: regimen Daily Repeat, gender Male, age 6-8 weeks
Conditions: in vivo, sc, route subcutaneous, […]; for ABSOLUTE BASOPHIL / ABSOLUTE EOSINOPHIL / ABSOLUTE LYMPHOCYTE / ABSOLUTE MONOCYTE / ABSOLUTE SEGMENTED NEUTROPHIL / BASOPHIL / EOSINOPHIL / ERYTHROCYTE COUNT / HEMATOCRIT / HEMOGLOBIN / LEUKOCYTE COUNT / LYMPHOCYTE / MEAN CORPUSCULAR HEMOGLOBIN / MEAN CORPUSCULAR HEMOGLOBIN CONCENTRATION / MEAN CORPUSCULAR VOLUME / MONOCYTE / NEUTROPHIL / NUCLEATED RED BLOOD CELLS / PLATELET COUNT: tissue Blood; for ALANINE AMINOTRANSFERASE / ALBUMIN / ALKALINE PHOSPHATASE / ASPARTATE AMINOTRANSFERASE / BLOOD UREA NITROGEN / CARBON DIOXIDE / CHLORIDE / CHOLESTEROL / CREATINE PHOSPHOKINASE / CREATININE / GLUCOSE / LACTATE DEHYDROGENASE / LIPASE / PHOSPHORUS / POTASSIUM / SODIUM / TOTAL BILIRUBIN / TOTAL PROTEIN / URIC ACID: tissue Plasma
[1] = 0 mg/kg, 72 h, dose level Control, time 3 day
[2] = 0 mg/kg, 120 h, dose level Control, time 5 day
[3] = 0.8 mg/kg, 72 h, dose level Low, time 3 day

Oc1c(Cl)cc(Cl)c(Cl)c1Cc1c(O)c(Cl)cc(Cl)c1Cl [HEXACHLOROPHENE]
ABSOLUTE BASOPHIL [1]: 0 CELLS/uL
ABSOLUTE EOSINOPHIL [1]: 92.33 CELLS/uL
ABSOLUTE LYMPHOCYTE [1]: 12247.5 CELLS/uL
ABSOLUTE MONOCYTE [1]: 389.67 CELLS/uL
ABSOLUTE SEGMENTED NEUTROPHIL [1]: 1320.5 CELLS/uL
BASOPHIL [1]: 0%
EOSINOPHIL [1]: 0.67%
ERYTHROCYTE COUNT [1]: 5.45 x10E6/uL
HEMATOCRIT [1]: 34.85%
HEMOGLOBIN [1]: 12.97 G/DL
LEUKOCYTE COUNT [1]: 14.05 x10E3/uL
LYMPHOCYTE [1]: 87.33%
MEAN CORPUSCULAR HEMOGLOBIN [1]: 23.78 pg
MEAN CORPUSCULAR HEMOGLOBIN CONCENTRATION [1]: 37.22 G/DL
MEAN CORPUSCULAR VOLUME [1]: 63.93 fL
MONOCYTE [1]: 2.67%
NEUTROPHIL [1]: 9.33%
NUCLEATED RED BLOOD CELLS [1]: 0 /100WBC
PLATELET COUNT [1]: 1174 x10E3/uL
ALANINE AMINOTRANSFERASE [1]: 48.83 u/L
ALBUMIN [1]: 4.23 G/DL
ALKALINE PHOSPHATASE [1]: 351.5 u/L
ASPARTATE AMINOTRANSFERASE [1]: 90 u/L
BLOOD UREA NITROGEN [1]: 15.33 mg/dL
CARBON DIOXIDE [1]: 23 mmol/L
CHLORIDE [1]: 103.5 MEQ/L
CHOLESTEROL [1]: 70.5 mg/dL
CREATINE PHOSPHOKINASE [1]: 651.83 u/L
CREATININE [1]: 0.22 mg/dL
GLUCOSE [1]: 180.67 mg/dL
LACTATE DEHYDROGENASE [1]: 165 u/L
LIPASE [1]: 9.33 u/L
PHOSPHORUS [1]: 12.03 mg/dL
POTASSIUM [1]: 6.17 MEQ/L
SODIUM [1]: 142.62 MEQ/L
TOTAL BILIRUBIN [1]: 0.2 mg/dL
TOTAL PROTEIN [1]: 5.73 G/DL
URIC ACID [1]: 1.77 mg/dL
ABSOLUTE BASOPHIL [2]: 0 CELLS/uL
ABSOLUTE EOSINOPHIL [2]: 0 CELLS/uL
ABSOLUTE LYMPHOCYTE [2]: 12736.67 CELLS/uL
ABSOLUTE MONOCYTE [2]: 253.5 CELLS/uL
ABSOLUTE SEGMENTED NEUTROPHIL [2]: 1193.17 CELLS/uL
BASOPHIL [2]: 0%
EOSINOPHIL [2]: 0%
ERYTHROCYTE COUNT [2]: 5.72 x10E6/uL
HEMATOCRIT [2]: 36.05%
HEMOGLOBIN [2]: 13.62 G/DL
LEUKOCYTE COUNT [2]: 14.18 x10E3/uL
LYMPHOCYTE [2]: 89.33%
MEAN CORPUSCULAR HEMOGLOBIN [2]: 23.83 pg
MEAN CORPUSCULAR HEMOGLOBIN CONCENTRATION [2]: 37.8 G/DL
MEAN CORPUSCULAR VOLUME [2]: 63.05 fL
MONOCYTE [2]: 1.83%
NEUTROPHIL [2]: 8.83%
NUCLEATED RED BLOOD CELLS [2]: 0 /100WBC
PLATELET COUNT [2]: 1322.17 x10E3/uL
ALANINE AMINOTRANSFERASE [2]: 48.83 u/L
ALBUMIN [2]: 4.27 G/DL
ALKALINE PHOSPHATASE [2]: 295.17 u/L
ASPARTATE AMINOTRANSFERASE [2]: 75.83 u/L
BLOOD UREA NITROGEN [2]: 15.5 mg/dL
CARBON DIOXIDE [2]: 30.5 mmol/L
CHLORIDE [2]: 102.33 MEQ/L
CHOLESTEROL [2]: 76.17 mg/dL
CREATINE PHOSPHOKINASE [2]: 205.5 u/L
CREATININE [2]: 0.2 mg/dL
GLUCOSE [2]: 149.67 mg/dL
LACTATE DEHYDROGENASE [2]: 124.5 u/L
LIPASE [2]: 10 u/L
PHOSPHORUS [2]: 10.93 mg/dL
POTASSIUM [2]: 6.59 MEQ/L
SODIUM [2]: 143.1 MEQ/L
TOTAL BILIRUBIN [2]: 0.2 mg/dL
TOTAL PROTEIN [2]: 6.05 G/DL
URIC ACID [2]: 1.45 mg/dL
ABSOLUTE BASOPHIL [3]: 0 CELLS/uL
ABSOLUTE EOSINOPHIL [3]: 0 CELLS/uL
ABSOLUTE LYMPHOCYTE [3]: 12277.33 CELLS/uL
ABSOLUTE MONOCYTE [3]: 275.33 CELLS/uL
ABSOLUTE SEGMENTED NEUTROPHIL [3]: 1214 CELLS/uL
BASOPHIL [3]: 0%
EOSINOPHIL [3]: 0%
ERYTHROCYTE COUNT [3]: 5.64 x10E6/uL
HEMATOCRIT [3]: 34.87%
HEMOGLOBIN [3]: 13.13 G/DL
LEUKOCYTE COUNT [3]: 13.77 x10E3/uL
LYMPHOCYTE [3]: 89.33%
MEAN CORPUSCULAR HEMOGLOBIN [3]: 23.3 pg
MEAN CORPUSCULAR HEMOGLOBIN CONCENTRATION [3]: 37.67 G/DL
MEAN CORPUSCULAR VOLUME [3]: 61.83 fL
MONOCYTE [3]: 2%
NEUTROPHIL [3]: 8.67%
NUCLEATED RED BLOOD CELLS [3]: 0 /100WBC
PLATELET COUNT [3]: 1307.67 x10E3/uL
ALANINE AMINOTRANSFERASE [3]: 41.67 u/L
ALBUMIN [3]: 4.47 G/DL
ALKALINE PHOSPHATASE [3]: 339.67 u/L
ASPARTATE AMINOTRANSFERASE [3]: 84 u/L
BLOOD UREA NITROGEN [3]: 18 mg/dL
CARBON DIOXIDE [3]: 24.67 mmol/L
CHLORIDE [3]: 102.67 MEQ/L
CHOLESTEROL [3]: 79.67 mg/dL
CREATINE PHOSPHOKINASE [3]: 217.33 u/L
CREATININE [3]: 0.21 mg/dL
GLUCOSE [3]: 142.33 mg/dL
LACTATE DEHYDROGENASE [3]: 343.67 u/L
LIPASE [3]: 10 u/L
PHOSPHORUS [3]: 13.23 mg/dL
POTASSIUM [3]: 6.86 MEQ/L
SODIUM [3]: 144.73 MEQ/L
TOTAL BILIRUBIN [3]: 0.23 mg/dL
TOTAL PROTEIN [3]: 6 G/DL
URIC ACID [3]: 2 mg/dL
